Measured values from ChEMBL document CHEMBL6109100, “Discovery of novel benzoxazole analogues as potential anticancer agent selectively targeting aromatase” (Bioorg Med Chem, 2025).

Legend:
MCF7 = test: Cytotoxicity against human MCF7 cells assessed as reduction in cell viability measured after 48 hrs by SRB assay; format: functional
MDA-MB-468 = test: Cytotoxicity against human MDA-MB-468 cells assessed as reduction in cell viability measured after 48 hrs by SRB assay; format: functional
Carbonic anhydrase 2 = Carbonic anhydrase 2 (Homo sapiens, UniProt P00918); test: Inhibition of CA2 (unknown origin) using p-nitrophenyl acetate as substrate preincubated for 10 mins followed by substrate addition and measured after 30 mins by spectrophotometry
MDA-MB-231 [1] = test: Cytotoxicity against human MDA-MB-231 cells assessed as reduction in cell viability measured after 48 hrs by SRB assay; format: functional
Histone deacetylase = test: Inhibition of HDAC (unknown origin); format: protein assay, Homo sapiens
T47D = test: Cytotoxicity against human T47D cells assessed as reduction in cell viability measured after 48 hrs by SRB assay; format: functional
BT-549 = test: Cytotoxicity against human BT-549 cells assessed as reduction in cell viability measured after 48 hrs by SRB assay; format: functional
[2] = target: Poly [ADP-ribose] polymerase 2 (Homo sapiens, UniProt Q9UGN5); test: Inhibition of PARP-2 (unknown origin)
[3] = Cytotoxicity against African green monkey Vero cells assessed as reduction in cell viability measured after 48 hrs by SRB assay; format: toxicity, cell-based; settings: chlorocebus sabaeus
Aromatase [4] = target: T1, Aromatase (Homo sapiens, UniProt P11511); test: Inhibition of aromatase in human MCF7 cells using androstenedione as substrate measured after 2 hrs; format: cell-based
T1 sequence (P11511 whole entry): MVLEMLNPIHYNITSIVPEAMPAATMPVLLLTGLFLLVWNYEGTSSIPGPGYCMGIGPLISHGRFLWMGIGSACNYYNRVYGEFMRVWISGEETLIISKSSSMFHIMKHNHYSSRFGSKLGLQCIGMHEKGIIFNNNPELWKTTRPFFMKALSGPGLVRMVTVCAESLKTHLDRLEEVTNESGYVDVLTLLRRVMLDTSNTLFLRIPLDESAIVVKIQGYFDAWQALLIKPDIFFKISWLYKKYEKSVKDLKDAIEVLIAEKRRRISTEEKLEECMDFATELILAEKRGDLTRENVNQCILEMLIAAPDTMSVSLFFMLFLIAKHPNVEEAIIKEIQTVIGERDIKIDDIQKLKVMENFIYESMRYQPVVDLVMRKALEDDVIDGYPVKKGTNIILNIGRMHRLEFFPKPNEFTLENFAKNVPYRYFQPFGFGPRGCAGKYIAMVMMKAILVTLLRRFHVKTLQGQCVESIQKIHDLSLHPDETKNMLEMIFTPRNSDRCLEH

RPMI-8226 = test: Cytotoxicity against human RPMI-8226 cells assessed as reduction in cell viability measured after 48 hrs by SRB assay; format: functional, cell-based; settings: RPMI-8226, 48 h
Aromatase [5] = target: T2, Aromatase (Rattus norvegicus, UniProt P22443); test: Inhibition of rat aromatase measured after 2 hrs by ELISA
T2 sequence (P22443 whole entry): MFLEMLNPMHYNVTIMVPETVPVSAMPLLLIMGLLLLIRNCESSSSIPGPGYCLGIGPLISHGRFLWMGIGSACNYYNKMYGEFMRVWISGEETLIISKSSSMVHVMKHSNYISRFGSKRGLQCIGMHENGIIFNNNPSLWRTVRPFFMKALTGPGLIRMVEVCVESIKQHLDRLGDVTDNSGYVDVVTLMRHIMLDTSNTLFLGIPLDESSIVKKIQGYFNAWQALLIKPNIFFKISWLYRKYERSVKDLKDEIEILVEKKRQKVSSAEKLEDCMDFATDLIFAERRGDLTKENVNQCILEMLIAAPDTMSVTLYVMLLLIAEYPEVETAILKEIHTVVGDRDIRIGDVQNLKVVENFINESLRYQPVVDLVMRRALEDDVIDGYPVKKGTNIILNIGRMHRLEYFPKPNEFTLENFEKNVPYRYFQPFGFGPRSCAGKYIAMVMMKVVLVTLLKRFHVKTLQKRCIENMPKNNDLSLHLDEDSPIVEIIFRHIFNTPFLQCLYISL

MDA-MB-231 [6] = test: Cytotoxicity against human MDA-MB-231 cells assessed as reduction in cell viability measured after 48 hrs by MTT assay; format: functional, cell-based; settings: MDA-MB-231, 48 h

Chain of Poly [ADP-ribose] polymerase 2 (Q9UGN5 whole entry): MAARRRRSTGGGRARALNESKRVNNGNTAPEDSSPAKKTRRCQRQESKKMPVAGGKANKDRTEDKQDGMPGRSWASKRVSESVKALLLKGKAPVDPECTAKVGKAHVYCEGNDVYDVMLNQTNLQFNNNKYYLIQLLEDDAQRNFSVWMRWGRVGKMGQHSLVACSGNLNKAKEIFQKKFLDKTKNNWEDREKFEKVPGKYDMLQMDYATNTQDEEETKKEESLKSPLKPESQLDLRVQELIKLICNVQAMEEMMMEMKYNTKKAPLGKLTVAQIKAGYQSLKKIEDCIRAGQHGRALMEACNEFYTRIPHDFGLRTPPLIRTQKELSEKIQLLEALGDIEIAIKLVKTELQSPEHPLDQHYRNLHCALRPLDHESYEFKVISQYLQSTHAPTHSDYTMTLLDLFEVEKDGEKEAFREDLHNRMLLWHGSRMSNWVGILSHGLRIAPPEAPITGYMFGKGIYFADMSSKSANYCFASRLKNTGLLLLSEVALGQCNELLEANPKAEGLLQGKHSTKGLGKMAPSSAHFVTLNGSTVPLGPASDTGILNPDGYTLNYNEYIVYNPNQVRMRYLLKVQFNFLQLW

Question: For CS(=O)(=O)N1CCN(Cc2nc3cc(F)ccc3o2)CC1, which GI50 (MCF7) is on record?
Answer: 29.8 µM

Question: For O=S(=O)(c1ccccc1)N1CCN(Cc2nc3cc(F)ccc3o2)CC1, which GI50 (MCF7) is on record?
Answer: 8.56 µM

Question: With O=S(=O)(c1ccc(F)cc1)N1CCN(Cc2nc3cc(F)ccc3o2)CC1 as the compound, how does the GI50 (MCF7) read?
Answer: 6.52 µM

Question: With O=[N+]([O-])c1cccc(S(=O)(=O)N2CCN(Cc3nc4cc(F)ccc4o3)CC2)c1 as the compound, how does the GI50 (MCF7) read?
Answer: 3.25 µM

Question: For O=[N+]([O-])c1ccccc1S(=O)(=O)N1CCN(Cc2nc3cc(F)ccc3o2)CC1, which GI50 (MCF7) is on record?
Answer: 5.95 µM

Question: With O=S(=O)(c1cccc2ccccc12)N1CCN(Cc2nc3cc(F)ccc3o2)CC1 as the compound, how does the GI50 (MCF7) read?
Answer: 12.5 µM

Question: For CN(C)S(=O)(=O)N1CCN(Cc2nc3cc(F)ccc3o2)CC1, which GI50 (MCF7) is on record?
Answer: 18.3 µM

Question: With CCS(=O)(=O)N1CCN(Cc2nc3cc(F)ccc3o2)CC1 as the compound, how does the GI50 (MCF7) read?
Answer: 14.4 µM

Question: For O=[N+]([O-])c1ccc(S(=O)(=O)N2CCN(Cc3nc4cc(F)ccc4o3)CC2)cc1, which GI50 (MCF7) is on record?
Answer: 1.02 µM

Question: With O=Cc1ccc(S(=O)(=O)N2CCN(Cc3nc4cc(F)ccc4o3)CC2)cc1 as the compound, how does the GI50 (MCF7) read?
Answer: 2.45 µM

Question: With COc1ccccc1S(=O)(=O)N1CCN(Cc2nc3cc(F)ccc3o2)CC1 as the compound, how does the GI50 (MCF7) read?
Answer: 4.63 µM

Question: Which GI50 (MCF7) does the source give for O=S(=O)(N1CCCCC1)N1CCN(Cc2nc3cc(F)ccc3o2)CC1 here?
Answer: 9.33 µM

Question: With O=S(=O)(N1CCOCC1)N1CCN(Cc2nc3cc(F)ccc3o2)CC1 as the compound, how does the GI50 (MCF7) read?
Answer: 10.3 µM

Question: For CC(C)(C)c1ccc(S(=O)(=O)N2CCN(Cc3nc4cc(F)ccc4o3)CC2)cc1, which GI50 (MDA-MB-468) is on record?
Answer: 0.87 µM

Question: And the IC50 (Carbonic anhydrase 2)?
Answer: 4.1 µM

Question: And the GI50 (MCF7)?
Answer: 0.22 µM

Question: What about the GI50 (MDA-MB-231 [1]) of the same compound?
Answer: 0.49 µM

Question: What about the IC50 (Histone deacetylase) of the same compound?
Answer: 1.125 µM

Question: And the GI50 (T47D)?
Answer: 2.55 µM

Question: And the GI50 (BT-549)?
Answer: 1.73 µM

Question: And the IC50 [2]?
Answer: 0.739 µM

Question: What about the GI50 at 48 h [3] of the same compound?
Answer: 67.1 µM

Question: What about the IC50 (Aromatase [4]) of the same compound?
Answer: 0.0649 µM

Question: For CC(C)S(=O)(=O)N1CCN(Cc2nc3cc(F)ccc3o2)CC1, which GI50 (MCF7) is on record?
Answer: 21.6 µM

Question: With Cc1ccc(S(=O)(=O)N2CCN(Cc3nc4cc(F)ccc4o3)CC2)cc1 as the compound, how does the GI50 (MCF7) read?
Answer: 1.73 µM

Question: Which GI50 (MCF7) does the source give for CN1CCN(S(=O)(=O)N2CCN(Cc3nc4cc(F)ccc4o3)CC2)CC1 here?
Answer: 7.37 µM

Question: For O=S(=O)(C1CC1)N1CCN(Cc2nc3cc(F)ccc3o2)CC1, which GI50 (MCF7) is on record?
Answer: 25.1 µM

Question: Which IC50 (RPMI-8226) does the source give for Cc1nc(Nc2nc3ccccc3o2)nc(-c2cccc([N+](=O)[O-])c2)c1C(=O)Nc1ccc(F)cc1Cl here?
Answer: 0.72 µM

Question: Which IC50 (Aromatase [5]) does the source give for CC(C)(C#N)c1cc(Cn2cncn2)cc(C(C)(C)C#N)c1 [ANASTROZOLE] here?
Answer: 3.93 µM

Question: And the IC50 (MDA-MB-231 [6])?
Answer: 1.21 µM

Question: With COc1cccc2c1C(=O)c1c(O)c3c(c(O)c1C2=O)C[C@@](O)(C(=O)CO)C[C@@H]3O[C@H]1C[C@H](N)[C@H](O)[C@H](C)O1 [DOXORUBICIN] as the compound, how does the GI50 (MDA-MB-468) read?
Answer: 0.53 µM

Question: What about the GI50 (MCF7) of the same compound?
Answer: 0.89 µM

Question: And the GI50 (MDA-MB-231 [1])?
Answer: 0.14 µM

Question: And the GI50 (T47D)?
Answer: 3.78 µM

Question: What about the GI50 (BT-549) of the same compound?
Answer: 2.01 µM

Question: And the GI50 at 48 h [3]?
Answer: 143 µM

Question: For N#Cc1ccc(C(c2ccc(C#N)cc2)n2cncn2)cc1 [LETROZOLE], which IC50 (Aromatase [5]) is on record?
Answer: 0.29 µM

Question: And the IC50 (MDA-MB-231 [6])?
Answer: 1.27 µM
